The target in data set [1] is T1, AIP TPR-domain R304Q mutant (Homo sapiens, UniProt O00170, R304Q).
T1 construct: The TPR domain (residues 166–330) of human AIP; His tag (PreScission cleavable) (cleaved yes); made in house
T1 sequence (O00170 166-330 R304Q): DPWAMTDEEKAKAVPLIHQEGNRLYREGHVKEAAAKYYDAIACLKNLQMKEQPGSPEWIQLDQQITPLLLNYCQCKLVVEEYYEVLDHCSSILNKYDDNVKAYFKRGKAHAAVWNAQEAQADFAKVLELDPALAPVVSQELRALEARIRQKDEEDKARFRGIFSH
Put plainly: Isothermal titration calorimetry, R304Q AIP TPR-domain. In kind it is binding. The settings on record: ITC, 20 mM Tris pH 7.5, 5 mM NaCl, 30°C, peptide 350-600 µM injected into 30 µM TPR-domain. The protocol: (§1) The TPR domain (residues 166–330) of human AIP was expressed as a PreScission cleavable His-tagged protein from pTWO-E (pET-17b derived; personal communication, A. W. Oliver, Sussex University). The TPR domain was purified by talon-affinity chromatography (Clontech, Oxford, UK), then concentrated and desalted on a HIPrep 26/10 desalting column equilibrated in 20 mM Tris pH 7.5 containing 1 mM EDTA. The sample was then cleaved overnight with GST-tagged PreScision protease. The cleaved protein was subsequently passed through a GST column equilibrated in 20 mM Tris pH 7.5, 1 mM EDTA and 150 mM NaCl and then through a second Talon column to remove any remaining uncleaved protein. The flow through was then concentrated and subjected to superdex 75HR gel-filtration chromatography equilibrated in 20 mM Tris pH 7.5, 1 mM EDTA, 1 mM DTT and 500 mM NaCl. Pure TPR domain were concentrated and then desalted on a HIPrep 26/10 column equilibrated in 20 mM Tris pH 7.5 containing 1 mM EDTA. The protein was stored frozen at 2 mg ml^−1.
(§2) The heat of interaction was measured on an ITC200 microcalorimeter (Microcal), with a cell volume of 200 µL, under the same buffer conditions (20 mM Tris, pH 7.5, containing 5 mM NaCl) at 30°C. Twenty 1.9 µL aliquots of AIP TPR-domain at 350 µM were injected into 30 µM of human HSP90β. For peptide interactions twenty 1.9 µL aliquots of peptide ranging from 350 to 600 µM were injected into 30 µM of AIP TPR-domain. Heats of dilution were determined in a separate experiment by diluting protein or peptide into buffer, and the corrected data were fitted using a non-linear least-squares curve-fitting algorithm (Microcal Origin) with three floating variables: stoichiometry, binding constant and change in enthalpy of interaction. ATPase assays were previously described [44]–[46].
Background: Isothermal titration calorimetry measures the heat released or taken up as one component is titrated into another.

The target in data set [2] is T2, AIP TPR-domain R304A mutant (Homo sapiens, UniProt O00170, R304A).
T2 construct: The TPR domain (residues 166–330) of human AIP; His tag (PreScission cleavable) (cleaved yes); made in house
T2 sequence (O00170 166-330 R304A): T1 sequence (O00170 166-330 R304Q) with Q139A
Description: Isothermal titration calorimetry, R304A AIP TPR-domain. The class given is binding. The settings on record: ITC, 20 mM Tris pH 7.5, 5 mM NaCl, 30°C, peptide 350-600 µM injected into 30 µM TPR-domain. On the procedure: as §1, §2

The target in data set [3] is T3, TPR domain (residues 166–330) of human AIP, WT (Homo sapiens, UniProt O00170).
T3 construct: The TPR domain (residues 166–330) of human AIP; His tag (PreScission cleavable) (cleaved yes); made in house
T3 sequence (O00170 166-330): T1 sequence (O00170 166-330 R304Q) with Q139R
Description: Isothermal titration calorimetry, wild-type AIP TPR-domain. To be noted: ITC; for N (stoichiometry): first value where two are printed. The class given is binding. The protocol:
as §1, §2

The test system of the next data set is AIP. To be noted: cited from earlier work. From the text:
Recently, mutations in aryl hydrocarbon receptor interacting protein (AIP), [2] have been linked to familial isolated pituitary adenomas (FIPA) [3]–[5], a condition most often characterized by young-onset growth hormone and prolactin-secreting pituitary tumors (reviewed by), which leads to acromegaly and gigantism. The human AIP gene encodes a 37 kDa protein of 330 amino acids that, based on similarities to other proteins, is predicted to have an N-terminal immunophilin-like domain [7] and a C-terminal tetratricopeptide repeat (TPR) domain. Typically, TPR domains consist of ...

For data set [4], the target named is AIP TPR-domain E192R mutant. Put plainly: Isothermal titration calorimetry, E192R AIP TPR-domain. In kind it is binding, human. To be noted: ITC, 20 mM Tris pH 7.5, 5 mM NaCl, 30°C, 350 µM AIP TPR injected into 30 µM HSP90β. The protocol:
as §1, with “Pure TPR domain were concentrated and then desalted on a HIPrep 26/10 column equilibrated in 20 mM Tris pH 7.5 containing 1 mM EDTA. The protein was stored frozen at 2 mg ml^−1.” left out
The heat of interaction was measured on an ITC200 microcalorimeter (Microcal), with a cell volume of 200 µL, under the same buffer conditions (20 mM Tris, pH 7.5, containing 5 mM NaCl) at 30°C. […] Heats of dilution were determined in a separate experiment by diluting protein or peptide into buffer, and the corrected data were fitted using a non-linear least-squares curve-fitting algorithm (Microcal Origin) with three floating variables: stoichiometry, binding constant and change in enthalpy of interaction. […]

The target of data set [5] is T4, full-length human HSP90β (human, UniProt P08238 1-724).
T4 construct: HSP90β, human, full length; also called FL-hHSP90β; intact HSP90
Description: ITC; twenty 1.9 µL aliquots of AIP TPR-domain at 350 µM injected into 30 µM human HSP90β; 20 mM Tris pH 7.5, 5 mM NaCl, 30°C. To be noted: both partners purified.

Data set [6] addresses T4, full-length human HSP90β. Described as above. The settings on record: both partners purified. The source holds these as a separate data set.
The test system of a further data set is HSP90. Description: HSP90 ATPase assay. The class given is biochemical. To be noted: 20-fold molar excess of full-length AIP.
The mark [7] stands for this setting: 20 mM Tris pH 7.5, 5 mM NaCl, 30°C.

Positions count from the first letter of the chain named. Where no end group is shown, it is not given here.

T4 sequence (P08238 whole entry): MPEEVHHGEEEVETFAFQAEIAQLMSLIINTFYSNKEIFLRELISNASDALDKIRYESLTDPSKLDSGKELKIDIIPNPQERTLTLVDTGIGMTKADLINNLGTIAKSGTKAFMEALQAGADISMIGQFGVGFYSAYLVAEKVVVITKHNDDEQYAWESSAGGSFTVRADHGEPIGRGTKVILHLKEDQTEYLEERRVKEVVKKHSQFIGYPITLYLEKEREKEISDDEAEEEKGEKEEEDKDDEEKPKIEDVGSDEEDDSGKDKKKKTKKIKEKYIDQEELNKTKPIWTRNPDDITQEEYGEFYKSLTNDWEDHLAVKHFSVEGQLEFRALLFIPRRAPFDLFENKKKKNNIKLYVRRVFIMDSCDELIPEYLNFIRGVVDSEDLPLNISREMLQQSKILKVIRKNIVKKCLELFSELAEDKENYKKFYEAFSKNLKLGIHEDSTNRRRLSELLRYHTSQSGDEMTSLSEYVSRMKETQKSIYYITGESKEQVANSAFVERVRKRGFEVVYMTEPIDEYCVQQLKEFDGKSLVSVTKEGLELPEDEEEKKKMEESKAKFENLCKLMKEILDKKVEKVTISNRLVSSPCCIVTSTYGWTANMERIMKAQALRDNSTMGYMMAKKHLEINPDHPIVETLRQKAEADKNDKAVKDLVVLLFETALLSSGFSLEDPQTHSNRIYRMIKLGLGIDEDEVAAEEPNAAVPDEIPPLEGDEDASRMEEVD

For the molecule `CSCC[C@H](NC(=O)[C@H](CCCNC(=N)N)NC(=O)[C@H](CO)NC(=O)[C@H](C)NC(=O)[C@H](CC(=O)O)NC(=O)[C@@H](N)CCC(=O)O)C(=O)N[C@@H](CCC(=O)O)C(=O)N[C@@H](CCC(=O)O)C(=O)N[C@H](C(=O)N[C@@H](CC(=O)O)C(=O)O)C(C)C` [EDASRMEEVD], the equilibrium dissociation constant (Kd) is 16.2 ± 1.1 µM in data set [1], 15.6 ± 0.85 µM in data set [2] and 14.4 to 18.6 µM in data set [3] (range of the two titrations as given in the text).
Regarding `CC[C@H](C)[C@H](NC(=O)[C@@H](NC(=O)[C@@H]1CCCN1C(=O)CNC(=O)[C@H](CO)NC(=O)CN)[C@@H](C)O)C(=O)N[C@@H](CCC(=O)O)C(=O)N[C@@H](CCC(=O)O)C(=O)N[C@H](C(=O)N[C@@H](CC(=O)O)C(=O)O)C(C)C` [GSGPTIEEVD], the results for the dissociation constant (Kd) in data set [1] and in data set [2] were 31.1 ± 2.6 µM and 22.8 ± 1.6 µM, respectively.
Turning to `CO[C@H]1C[C@@H]2CC[C@@H](C)[C@@](O)(O2)C(=O)C(=O)N2CCCC[C@H]2C(=O)O[C@H]([C@H](C)C[C@@H]2CC[C@@H](O)[C@H](OC)C2)CC(=O)[C@H](C)/C=C(\C)[C@@H](O)[C@@H](OC)C(=O)[C@H](C)C[C@H](C)/C=C/C=C/C=C/1C` [rapamycin], in the data set on AIP, the “Binding to AIP” value is listed as “does not bind”.
Take “FL-hHSP90β: full-length human HSP90β chaperone protein”: the Kd in data set [4] came out at 11.1 ± 1.3 µM; in data set [3] (20 mM Tris pH 7.5, 5 mM NaCl, 30°C, peptide 350-600 µM injected into 30 µM AIP TPR-domain (for HSP90β: 350 µM AIP TPR into 30 µM HSP90β)), 13.3 ± 1.8 µM. Further, the ΔH in data set [3] (setting [7]) is -4.554 kcal/mol. In addition, the ΔS in data set [3] (setting [7]) was 7.29 Cal/mol/deg. In addition, the “N (stoichiometry)” value in data set [3] (20 mM Tris pH 7.5, 5 mM NaCl, 30°C, for HSP90β given as AIP:HSP90) was found to be 0.30; in data set [3] (20 mM Tris pH 7.5, 5 mM NaCl, 30°C, for HSP90β given as AIP:HSP90, listed as HSP90β) it was 0.3.
In the case of `C=CC[C@@H]1/C=C(\C)C[C@H](C)C[C@H](OC)[C@H]2O[C@@](O)(C(=O)C(=O)N3CCCC[C@H]3C(=O)O[C@H](/C(C)=C/[C@@H]3CC[C@@H](O)[C@H](OC)C3)[C@H](C)[C@@H](O)CC1=O)[C@H](C)C[C@@H]2OC` [FK506], the “Binding to AIP” value in the data set on AIP was “does not bind”.
Take AQSLAEDDVE [AQSLAEDDVE]: the dissociation constant Kd is 22.5 ± 2.2 µM in data set [1] and 16.6 ± 0.5 µM in data set [2].

B1: TPR domain (residues 166–330) of human AIP (aryl hydrocarbon receptor interacting protein), wild type (domain or fragment, UniProt O00170 166-330, looked up)
chain: T1 sequence (O00170 166-330 R304Q) with Q139R
notes: Residues Asp 172 to Arg 325 were visible in the TOMM20 peptide structure; also called AIP TPR-domain; WT
B1: the “stoichiometry N” value with full-length human HSP90β [5] is 0.5. In the data set with full-length human HSP90β [6], the dissociation constant Kd was 13.3 ± 1.8 µM, the dH is -4.55 kcal/mol and the “stoichiometry N” value stood at 0.3.

B2: full-length AIP: full-length aryl hydrocarbon receptor interacting protein, tested on HSP90 ATPase activity (protein, UniProt O00170 1-330, looked up)
chain: MADIIARLREDGIQKRVIQEGRGELPDFQDGTKATFHYRTLHSDDEGTVLDDSRARGKPMELIIGKKFKLPVWETIVCTMREGEIAQFLCDIKHVVLYPLVAKSLRNIAVGKDPLEGQRHCCGVAQMREHSSLGHADLDALQQNPQPLIFHMEMLKVESPGTYQQDPWAMTDEEKAKAVPLIHQEGNRLYREGHVKEAAAKYYDAIACLKNLQMKEQPGSPEWIQLDQQITPLLLNYCQCKLVVEEYYEVLDHCSSILNKYDDNVKAYFKRGKAHAAVWNAQEAQADFAKVLELDPALAPVVSRELRALEARIRQKDEEDKARFRGIFSH
modifications: full-length
As to B2, the “Effect on the ATPase activity of HSP90” value in the data set with HSP90 is “did not influence”.

Usually Kd stands for the constant that tells how readily two partners part at equilibrium. Higher therefore signals lower affinity. What is called stoichiometry N is a count of units in the complex or per binding partner.

Values taken from publication PMC3534021, “Structure of the TPR Domain of AIP: Lack of Client Protein Interaction with the C-Terminal α-7 Helix of the TPR Domain of AIP Is Sufficient for Pituitary Adenoma Predisposition” (PLoS ONE, 2012).
